Reference: patent publication US9073892B2, “Indazolyl triazol derivatives” (Merck Serono S.A., priority 2010, dated 2015)

tested on: T1, IRAK1/4 human; assay: IRAK1/4 phosphorylation IC50 (enzymatic assay, table 2); type: biochemical; settings: human IRAK1/4 phosphorylation
T1 construct: fused on or other part: His tag and TEV cleavage site at the N-terminus
Procedure, shortened: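 Inhibition values are IC50s. They come from 384-well reactions in which His-TEV-tagged human IRAK-1 or IRAK-4 (the latter with STK1-biotin peptide) met ATP and compounds in DMSO at 20 µM to 1 nM. The buffer was 50 mM Hepes pH7.0 containing MgCl2, DTT, EGTA and BSA, and incubation lasted 2 or 3 hours.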

Structure (SMILES)	IC50 [nM]
CN1C2CCC1CC(n1cc(-n3cc(-c4n[nH]c5ccccc45)nn3)cn1)C2 (stereo not drawn) [Example 140, 3-{1-[1-(8-methyl-8-azabicyclo[3.2.1]oct-3-yl)-1H-pyrazol-4-yl]-1H-1,2,3-triazol-4-yl}-1H-indazole]	< 100
O=C(c1ccc(-n2cc(-c3n[nH]c4ccc(Cn5nc(-c6ccc(O)cc6)ccc5=O)cc34)nn2)cc1)N1CCOCC1 [Example 144, 6-(4-hydroxyphenyl)-2-[(3-{1-[4-(morpholin-4-ylcarbonyl)phenyl]-1H-1,2,3-triazol-4-yl}-1H-indazol-5-yl)methyl]pyridazin-3(2H)-one]	< 100
OC(c1ccc(-n2cc(-c3n[nH]c4ccccc34)nn2)cc1)C(F)(F)F (stereo not drawn) [Example 150, 2,2,2-trifluoro-1-{4-[4-(1H-indazol-3-yl)-1H-1,2,3-triazol-1-yl]phenyl}ethanol]	100 to 1000
O=C(c1ccc(-n2cc(-c3n[nH]c4ccccc34)nn2)cn1)N1CCOCC1 [Example 155]	100 to 1000
CN(C)C1CCN(C(=O)c2ccc(-n3cc(-c4n[nH]c5ccc(C(F)(F)F)cc45)nn3)cc2)CC1 [Example 159]	100 to 1000
CC1CN(C(=O)c2ccc(-n3cc(-c4n[nH]c5ccccc45)nn3)cc2)CCO1 (stereo not drawn) [Example 160]	100 to 1000
O=C(c1ccc(-n2cc(-c3n[nH]c4ccccc34)nn2)cc1)N1CCOC(CO)C1 (stereo not drawn) [Example 161]	100 to 1000
CC1(C)CN(C(=O)c2ccc(-n3cc(-c4n[nH]c5ccccc45)nn3)cc2)CCO1 [Example 162]	100 to 1000
CN1CCCC2(CCCN(C(=O)c3ccc(-n4cc(-c5n[nH]c6ccccc56)nn4)cc3)C2)C1=O (stereo not drawn) [Example 163]	100 to 1000
CCOCC1CCCN(C(=O)c2ccc(-n3cc(-c4n[nH]c5ccccc45)nn3)cc2)C1 (stereo not drawn) [Example 164]	100 to 1000
O=C(c1ccc(-n2cc(-c3n[nH]c4ccccc34)nn2)cc1)N1CCCC2(COC2)C1 [Example 165]	100 to 1000
O=C(c1ccc(-n2cc(-c3n[nH]c4ccccc34)nn2)cc1)N1CCN2CCCC2C1 (stereo not drawn) [Example 166]	100 to 1000
O=C(c1ccc(-n2cc(-c3n[nH]c4ccccc34)nn2)cc1)N1CCOC(CCO)C1 (stereo not drawn) [Example 167]	100 to 1000
COCCC1CN(C(=O)c2ccc(-n3cc(-c4n[nH]c5ccccc45)nn3)cc2)CCO1 (stereo not drawn) [Example 168]	100 to 1000
O=C(Nc1cnn(C2CCNC2)c1)c1ccc(-n2cc(-c3n[nH]c4ccccc34)nn2)cc1 (stereo not drawn) [Example 169]	100 to 1000
O=C(c1ccc(-n2cc(-c3n[nH]c4ccccc34)nn2)cc1)N1CC2(COC2)C1 [Example 170]	100 to 1000
CN(C)C1CCN(C(=O)c2ccc(-n3cc(-c4n[nH]c5ccc(C6=CCCC6)cc45)nn3)cc2)CC1 [Example 172]	100 to 1000
CN(C)C1CCN(C(=O)c2ccc(-n3cc(-c4n[nH]c5ccc(C6=CCOCC6)cc45)nn3)cc2)CC1 [Example 173]	100 to 1000
CN(C)C1CCN(C(=O)c2ccc(-n3cc(-c4n[nH]c5ccc(C6=CCCCC6)cc45)nn3)cc2)CC1 [Example 174]	100 to 1000
O=C(Nc1cnn(CCc2ccncc2)c1)c1ccc(-n2cc(-c3n[nH]c4ccccc34)nn2)cc1 [Example 176]	100 to 1000
O=C(c1ccc(-n2cc(-c3n[nH]c4ccc(Cn5nc(-c6cccnc6)ccc5=O)cc34)nn2)cc1)N1CCOCC1 [Example 177]	< 100
CN(C)C1CCN(C(=O)c2ccc(-n3cc(-c4n[nH]c5ccc(C6CCCCC6)cc45)nn3)cc2)CC1 [Example 179]	100 to 1000
c1ccc2c(-c3cn(-c4cnn(CCN5CCOCC5)c4)nn3)n[nH]c2c1 [Example 180]	100 to 1000
CN(C)C1CCN(C(=O)c2ccc(-n3cc(-c4n[nH]c5ccc(C6CCCC6)cc45)nn3)cc2)CC1 [Example 183]	100 to 1000
CN1CCC(n2cc(-n3cc(-c4n[nH]c5ccccc45)nn3)cn2)CC1 [Example 186]	< 100
OCc1ccc(-n2cc(-c3n[nH]c4ccccc34)nn2)cc1 [Example 187]	100 to 1000
O=C(c1ccc(-n2cc(-c3n[nH]c4ccc(Cn5nc(-c6ccc(O)c(F)c6)ccc5=O)cc34)nn2)cc1)N1CCOCC1 [Example 190]	< 100
c1ccc2c(-c3cn(-c4ccc(CC5CCNCC5)cc4)nn3)n[nH]c2c1 [Example 205]	100 to 1000

Continued, values first:

IC50 [nM]	Structure (SMILES)
100 to 1000	CC(C)Cc1ccc2[nH]nc(-c3cn(-c4ccc(C(=O)N5CCC(N(C)C)CC5)cc4)nn3)c2c1 [Example 139, 1-{4-[4(5-isobutyl-1H-indazol-3-yl)-1H-1,2,3-triazol-1-yl]benzoyl}-N,N-dimethylpiperidin-4-amine]
100 to 1000	COC(=O)c1ccc2[nH]nc(-c3cn(-c4ccc(CN5CCOCC5)cc4)nn3)c2c1 [Example 142, methyl 3-{1-[4-(morpholin-4-ylmethyl)phenyl]-1H-1,2,3-triazol-4-yl}-1H-indazole-5-carboxylate]
100 to 1000	CN1CCC(NC(=O)c2ccc3[nH]nc(-c4cn(-c5ccc(CN6CCOCC6)cc5)nn4)c3c2)CC1 [Example 143, N-(1-methylpiperidin-4-yl)-3-{1-[4-(morpholin-4-ylmethyl)phenyl]-1H-1,2,3-triazol-4-yl}-1H-indazole-5-carboxamide]
100 to 1000	O=C(c1ccc(-n2cc(-c3n[nH]c4cc(C#CCO)ccc34)nn2)cc1)N1CCOCC1 [Example 146, 3-(3-{1-[4-(morpholin-4-ylcarbonyl)phenyl]-1H-1,2,3-triazol-4-yl}-1H-indazol-6-yl)prop-2-yn-1-ol]
100 to 1000	O=C(c1ccc(-n2cc(-c3n[nH]c4cc(CCCO)ccc34)nn2)cc1)N1CCOCC1 [Example 147, 3-(3-{1-[4-(morpholin-ylcarbonyl)phenyl]-1H-1,2,3-triazol-4-yl}-1H-indazol-6-yl)propan-1-ol]
< 100	CN1CCCC(Nc2ccc3[nH]nc(-c4cn(-c5ccc(C(=O)N6CCOCC6)cc5)nn4)c3c2)C1 (stereo not drawn) [Example 148, N-(1-methylpiperidin-3-yl)-3-{1-[4-(morpholin-4-ylcarbonyl)phenyl]-1H-1,2,3-triazol-4-yl}-1H-indazol-5-amine]
< 100	CN(C)C1CCN(c2ccc3[nH]nc(-c4cn(-c5ccc(C(=O)N6CCOCC6)cc5)nn4)c3c2)C1 (stereo not drawn) [Example 149, N,N-dimethyl-1-(3-{1-[4-(morpholin-4-ylcarbonyl)phenyl]-1H-1,2,3-triazol-4-yl}-1H-indazol-5-yl)pyrrolidin-3-amine]
100 to 1000	O=C(c1ccc(-n2cc(-c3n[nH]c4ccc(OCCCO)cc34)nn2)cc1)N1CCOCC1 [Example 153, 3-[(3-{1-[4-(morpholin-4-ylcarbonyl)phenyl]-1H-1,2,3-triazol-4-yl}-1H-indazol-5-yl)oxy]propan-1-ol]
100 to 1000	O=C1C[C@H](OCc2ccc3[nH]nc(-c4cn(-c5ccc(C(=O)N6CCOCC6)cc5)nn4)c3c2)CO1 [Example 154, (4S)-4-[(3-{1-[4-(morpholin-4-ylcarbonyl)phenyl]-1H-1,2,3-triazol-4-yl}-1H-indazol-5-yl)methoxy]dihydrofuran-2(3H)-one]
100 to 1000	O=C(c1ccc(-n2cc(-c3n[nH]c4ccc(C(F)(F)F)cc34)nn2)cc1)N1CCOCC1 [Example 156]
100 to 1000	O=C(c1ccc(-n2cc(-c3n[nH]c4ccc(F)cc34)nn2)cc1)N1CCOCC1 [Example 157]
100 to 1000	CN(C(=O)c1ccc(-n2cc(-c3n[nH]c4ccccc34)nn2)cc1)C1CCOCC1 [Example 171]
1000 to 5000	Cc1cccc2[nH]nc(-c3cn(-c4ccc(C(=O)N5CCOCC5)cc4)nn3)c12 [Example 175]
100 to 1000	CN(C)C1CCN(C(=O)c2ccc(-n3cc(-c4n[nH]c5ccc(C6CCOCC6)cc45)nn3)cc2)CC1 [Example 178]
100 to 1000	COc1cnccc1-c1ccc2[nH]nc(-c3cn(-c4ccc(C(=O)N5CCOCC5)cc4)nn3)c2c1 [Example 181]
1000 to 5000	O=C(c1ccc(-n2cc(-c3n[nH]c4cccc(F)c34)nn2)cc1)N1CCOCC1 [Example 182]

IC50 [nM]	Structure (SMILES)
< 100	Cc1ccc2c(-c3cn(-c4ccc(C(=O)N5CCOCC5)cc4)nn3)n[nH]c2c1 [Example 184]
100 to 1000	O=C(c1ccc(-n2cc(-c3n[nH]c4cc(Cl)ccc34)nn2)cc1)N1CCOCC1 [Example 185]
100 to 1000	COc1cc2[nH]nc(-c3cn(-c4ccc(C(=O)N5CCOCC5)cc4)nn3)c2cc1OC [Example 189]
< 100	O=C(c1ccc(-n2cc(-c3n[nH]c4ccc(O)cc34)nn2)cc1)N1CCOCC1 [Example 192]
100 to 1000	O=C(c1ccc(-n2cc(-c3n[nH]c4ccc(Cl)cc34)nn2)cc1)N1CCOCC1 [Example 193]
100 to 1000	O=C(c1ccc(-n2cc(-c3n[nH]c4cc(F)ccc34)nn2)cc1)N1CCOCC1 [Example 194]
100 to 1000	COc1ccc2c(-c3cn(-c4ccc(C(=O)N5CCOCC5)cc4)nn3)n[nH]c2c1 [Example 195]
< 100	O=c1ccc(-c2ccncc2)nn1Cc1ccc2[nH]nc(-c3cn(-c4ccc(CN5CCOCC5)cc4)nn3)c2c1 [Example 196]
100 to 1000	OCc1ccc2[nH]nc(-c3cn(-c4ccc(CN5CCOCC5)cc4)nn3)c2c1 [Example 198]
100 to 1000	O=c1ccc(-c2ccc(O)cc2)nn1Cc1ccc2[nH]nc(-c3cn(-c4ccc(CN5CCOCC5)cc4)nn3)c2c1 [Example 199]
< 100	O=c1ccc(-c2cccc(O)c2)nn1Cc1ccc2[nH]nc(-c3cn(-c4ccc(CN5CCOCC5)cc4)nn3)c2c1 [Example 200]
100 to 1000	C=C(C)c1ccc2c(-c3cn(-c4ccc(C(=O)N5CCOCC5)cc4)nn3)n[nH]c2c1 [Example 201]
1000 to 5000	COc1cc2[nH]nc(-c3cn(-c4ccc(C(=O)N5CCOCC5)cc4)nn3)c2cc1Br [Example 202]
1000 to 5000	O=C(c1ccc(-n2cc(-c3n[nH]c4cc(-c5ccccc5)ccc34)nn2)cc1)N1CCOCC1 [Example 203]
100 to 1000	CC(C)c1ccc2c(-c3cn(-c4ccc(C(=O)N5CCOCC5)cc4)nn3)n[nH]c2c1 [Example 206]
1000 to 5000	O=C(c1ccc(-n2cc(-c3n[nH]c4cc(-c5ccc(CO)cc5)ccc34)nn2)cc1)N1CCOCC1 [Example 207]
